Laboratory results published in the METLIN SMRT retention time set (Domingo-Almenara et al. 2019).
One block for each molecule: values may come before it.

Assay: gradient 5% acetonitrile 3 min, to 50% in 2 min, to 85% in 15 min, held 3 min, 100 µL/min
Details: column: Zorbax Extend-C18 2.1 x 50 mm; eluents: water / acetonitrile, 0.1% formic acid
Procedure, shortened: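 In both positive and negative ionization mode, a quadrupole time-of-flight mass spectrometer coupled to HPLC analyzed pure standards run in mixtures of ~100 molecules. The Zorbax Extend-C18 column (2.1 × 50 mm, 1.8 μm) was operated at 100 μL/min with water and acetonitrile, each containing 0.1% formic acid. The dead volume was 40 μL and the dwell volume 900 μL. Retention time came from adduct peaks that were computationally picked and individually inspected by hand.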

SMILES: Cc1cccn2cc(C(=O)NCc3ccc(N(C)C)cc3)nc12
RP-LC retention time: 565 s

SMILES: CON=C(C(=O)N[C@@H]1C(=O)N2C(C(=O)O)=C(CSc3nnnn3C)CS[C@H]12)c1csc(N)n1
RP-LC retention time: 621 s

SMILES: COc1cccc(CN2N=C(C(=O)N3CCOCC3)S(=O)(=O)c3ccccc32)c1
RP-LC retention time: 800 s

SMILES: Cc1ccccc1-c1nsc(SCC(=O)NCc2ccco2)n1
RP-LC retention time: 892 s

SMILES: COc1ccc(OC)c(S(=O)(=O)N2CCCC(C(=O)NCC(C)C)C2)c1 (stereo unspecified)
RP-LC retention time: 796 s

SMILES: CCOC(=O)Cn1cnc2c(-c3ccc(Br)cc3)csc2c1=O
RP-LC retention time: 998 s

SMILES: COc1ccccc1CN1CCc2nc(N3CCN(c4ccccc4OC)CC3)ncc2C1
RP-LC retention time: 687 s

SMILES: CCCn1c(=O)c(C)nc2cc(-c3noc(/C=C/c4ccc(OC)c(OC)c4)n3)ccc21
RP-LC retention time: 735 s

SMILES: CCc1ccccc1NC(=O)NCC1CCOCC1
RP-LC retention time: 705 s

SMILES: O=C(Nc1nc(-c2ccc(Cl)cc2)cs1)c1cccc(-n2cnnc2)n1
RP-LC retention time: 865 s

SMILES: CCOC(=O)COc1cc(-c2ccc(F)cc2)nc2ccc(NC(=O)COc3ccccc3)cc12
RP-LC retention time: 924 s

SMILES: COc1cccc(-c2nc(-c3ccnc(N4CCOCC4)c3)no2)c1
RP-LC retention time: 944 s

SMILES: CC(C)NC(=O)C1CCN(c2nc3ccc(-c4ccccc4)nc3s2)CC1
RP-LC retention time: 927 s

SMILES: O=C(NCCn1c(=O)n(Cc2ccccc2)c2cccnc21)c1cccs1
RP-LC retention time: 744 s

SMILES: C=CCNC(=O)C1CCN(C(=O)Nc2ccc(NC(=O)Nc3ccc(C)cc3C)cc2)CC1
RP-LC retention time: 728 s

SMILES: Cn1ncc2c(Nc3ccc([N+](=O)[O-])cc3)nc(Cl)nc21
RP-LC retention time: 963 s

SMILES: O=C(Cn1ncc2c(c1=O)N(CC1CC1)C(=O)CS2)NCc1ccc(F)cc1
RP-LC retention time: 750 s

SMILES: COC(=O)c1c(C)[nH]c(C(=O)N2CCCC(C(=O)NCCCc3ccccc3)C2)c1C (stereo unspecified)
RP-LC retention time: 800 s

SMILES: Cn1ncc2c3ccccc3n(CC(=O)NCCCN3CCCC3)c2c1=O
RP-LC retention time: 592 s

SMILES: COc1ccc(OC)c(S(=O)(=O)N2CCCN(C)c3ccccc32)c1
RP-LC retention time: 860 s

SMILES: O=C(Cc1ccsc1)N1CCC2(CC1)N=C(c1ccccc1)NO2
RP-LC retention time: 774 s

SMILES: O=C(Cn1nc2c(N3CCSCC3)nccn2c1=O)NC1CCCC1
RP-LC retention time: 722 s

SMILES: Cc1cc2nc(C)c(=O)n(CC(=O)NCCc3c[nH]c4ccccc34)c2cc1C
RP-LC retention time: 814 s

SMILES: Cc1ccccc1OCC(=O)N1C[C@@H]2C[C@H](NC(=O)c3ccccc3)[C@H]1C2
RP-LC retention time: 813 s

SMILES: CCNC(=O)N1CCCC1c1nc(C2CCOCC2)no1 (stereo unspecified)
RP-LC retention time: 612 s

SMILES: CCc1ccc(C2=C(C)C(N3CCC(C(=O)NCCc4ccco4)CC3)=NS2(=O)=O)cc1
RP-LC retention time: 882 s

SMILES: CCCn1c(C)cnc1C1CN(S(=O)(=O)c2ccc(Cl)cc2)C1
RP-LC retention time: 678 s

SMILES: Cc1ccc(S(=O)(=O)Nc2ccc3c(c2)CCC(=O)N3)cc1Cl
RP-LC retention time: 766 s

SMILES: Cc1nc(-c2ccncc2)nc2c1CCC(=O)N2CCN1CCCC1
RP-LC retention time: 533 s

SMILES: O=C(Cc1csc(NC(=O)c2ccco2)n1)NCc1cccs1
RP-LC retention time: 668 s

SMILES: Cc1ccc(-n2ccnc(NC(=O)Nc3ccc(F)cc3)c2=O)cc1C
RP-LC retention time: 1030 s

SMILES: CCNc1ncnc2sc3c(c12)CCN(C(=O)c1ccncc1)C3
RP-LC retention time: 591 s

SMILES: COc1ccc(NC(=O)Cn2c(=O)n(-c3ccc(F)cc3)c(=O)c3c2cc(C)n3C)cc1
RP-LC retention time: 812 s

SMILES: COc1ccc2c(c1)C1(CCN(C(=O)c3ccc(F)cc3)C1)C(=O)N2C (stereo unspecified)
RP-LC retention time: 759 s

SMILES: O=C(Cn1c(=O)c2cccn2c2ccccc21)Nc1cccc(Cl)c1
RP-LC retention time: 904 s

SMILES: CCC(=O)N1CCc2cc(N3CC(C(=O)Nc4ccc(C)cc4)CC3=O)ccc21 (stereo unspecified)
RP-LC retention time: 786 s

SMILES: O=C1Nc2cc(C(=O)N3CCC(N4CCCCC4)CC3)ccc2N2CCCCC12 (stereo unspecified)
RP-LC retention time: 581 s

Other lines, results leading:

RP-LC retention time: 996 s
SMILES: CCCCOc1ccc(S(=O)(=O)N2CCN(c3cc(C)nc(NC4CCCCC4)n3)CC2)cc1

RP-LC retention time: 904 s
SMILES: Cn1ncc2c3ccccc3n(CC(=O)NCCc3ccco3)c2c1=O

RP-LC retention time: 1100 s
SMILES: COc1ccc(CN2C=C(C(=O)OCc3cccc(OC)c3)C(C)=NS2(=O)=O)cc1

RP-LC retention time: 625 s
SMILES: O=C(c1ccco1)N1CCC(n2c(C3CCCC3)nc3cccnc32)C1 (stereo unspecified)

RP-LC retention time: 631 s
SMILES: Cc1ccc(S(=O)(=O)CCc2noc(C(=O)NCCN3CCC(C)CC3)n2)cc1

RP-LC retention time: 619 s
SMILES: COCC1CN(Cc2cn[nH]c2-c2ccc(F)cc2)CCC1(F)F (stereo unspecified)

RP-LC retention time: 788 s
SMILES: CCCCOc1ccc(NC(=O)N(Cc2ccccn2)Cc2ccco2)cc1

RP-LC retention time: 985 s
SMILES: Cc1ccc(NC(=O)Cn2nc3cc(-c4ccccc4)nc(C)n3c2=O)c(C)c1

RP-LC retention time: 982 s
SMILES: O=C(NCc1ccc(Br)cc1)C1CCN(c2ncnc3c2oc2ccccc23)CC1

RP-LC retention time: 563 s
SMILES: CCN1CCN(C(=O)CCC(=O)N2CCc3c(c(C(=O)N4CCCC4)nn3C)C2)CC1

RP-LC retention time: 1030 s
SMILES: O=C(Nc1cccc(C(F)(F)F)c1)N(Cc1ccsc1)C1CC1

RP-LC retention time: 756 s
SMILES: COc1cccc(CCC(=O)Nc2cc(-c3cccnc3)no2)c1

RP-LC retention time: 791 s
SMILES: COc1cccc(CNC(=O)CCc2nc3c(C)cccc3c(=O)n2C)c1OC

RP-LC retention time: 571 s
SMILES: Cc1cc(=O)n(CC(=O)Nc2ccccc2C#N)cn1

RP-LC retention time: 628 s
SMILES: CC1(C)C(=O)NCCN1C(=O)C1COc2ccccc2O1 (stereo unspecified)

RP-LC retention time: 694 s
SMILES: CCCS(=O)(=O)N1CCN(c2ccc(-n3cccn3)nn2)CC1

RP-LC retention time: 786 s
SMILES: Cc1ccccc1CNC(=O)C1(C)Oc2cccnc2N(C)C1=O (stereo unspecified)

RP-LC retention time: 750 s
SMILES: COc1ccc(CN2CN=C(Nc3nc(C)c4cccc(OC)c4n3)NC2)cc1

RP-LC retention time: 754 s
SMILES: CC(=O)Nc1ccc(NC(=O)c2cccc(N3C(=O)NC4CC3(C)Oc3ccc(Cl)cc34)c2)cc1 (stereo unspecified)

RP-LC retention time: 568 s
SMILES: O=C1NC(C(=O)N2CCOCC2)Cn2cccc21 (stereo unspecified)

RP-LC retention time: 908 s
SMILES: CCn1cc2c3c(cccc31)CN(C(=O)Nc1ccc3c(c1)OCCO3)CC2

RP-LC retention time: 1000 s
SMILES: CSc1ccc(CNc2cc(-n3nc(C)cc3C)ncn2)cc1

RP-LC retention time: 742 s
SMILES: CCc1ccc(NC(=O)Cn2c(C(C)C)nc3cc4c(cc32)OCCO4)cc1

RP-LC retention time: 1060 s
SMILES: CC1CCN(c2nn(CC(=O)Nc3ccc4c(c3)OCCO4)c(=O)c3ccccc23)CC1

RP-LC retention time: 688 s
SMILES: CC(C)NC(=O)N(C1CC1)C1CCOC2(CCN(C(=O)C3CC3)CC2)C1 (stereo unspecified)

RP-LC retention time: 742 s
SMILES: CCN1CCN(c2ccc(NC(=O)c3ccc(Cl)s3)cn2)C1=O

RP-LC retention time: 640 s
SMILES: O=C(Cn1nc2n(c1=O)CCCC2)NCc1ccccc1

RP-LC retention time: 648 s
SMILES: CN(C)c1ccc(CNC(=O)c2nnc(-c3ccc(S(=O)(=O)N4CCOCC4)cc3)o2)cc1

RP-LC retention time: 1080 s
SMILES: Cc1ccc(N2C(=O)N(Cc3ccc(F)cc3)S(=O)(=O)c3cccnc32)cc1

RP-LC retention time: 1300 s
SMILES: Cn1nccc1-c1cccc(-c2noc(-c3cccc(Br)c3)n2)c1

RP-LC retention time: 1080 s
SMILES: O=C(C1CCN(c2nc3ccc(-c4ccc(F)cc4)nc3s2)CC1)N1CCCCC1

RP-LC retention time: 961 s
SMILES: CCOc1cc(C)c(C)cc1S(=O)(=O)Nc1ccc(Cl)cn1

RP-LC retention time: 799 s
SMILES: COC(=O)CCNC(=O)C1c2ccccc2C(=O)N(Cc2ccco2)C12CCCCC2 (stereo unspecified)

RP-LC retention time: 747 s
SMILES: O=C1CC2(CCCC2)CC(=O)N1CCNCC1COc2ccccc2O1 (stereo unspecified)

RP-LC retention time: 667 s
SMILES: Cc1cc(NC(=O)c2ccccc2)nc(C)n1

RP-LC retention time: 772 s
SMILES: CCCN1C(=O)c2cccnc2Sc2cc(C(=O)N3CCCCC3)ccc21

RP-LC retention time: 564 s
SMILES: COc1ccc(Cl)cc1NC(=O)NCCN1CCN(S(C)(=O)=O)CC1

RP-LC retention time: 775 s
SMILES: CNC(=O)N1CCCC(c2cccc(C(=O)NCc3ccc(F)cc3F)c2)C1 (stereo unspecified)

RP-LC retention time: 649 s
SMILES: Cc1nc2ccc(C(=O)NC(C)C)cc2nc1C

RP-LC retention time: 847 s
SMILES: O=C(NC1CCCCC1)C1CCN(Cc2cc3ccccc3n2Cc2ccccc2Cl)CC1

RP-LC retention time: 978 s
SMILES: CCOC(=O)c1ccc(N2C=C(C#N)S(=O)(=O)c3ccc(C)cc32)cc1

RP-LC retention time: 557 s
SMILES: CCn1nccc1C(=O)N1CCC(Nc2ncnc3c2CCC3)CC1

RP-LC retention time: 1060 s
SMILES: Cc1c(-c2noc(-c3ccc(F)cc3)n2)nnn1Cc1ccc(F)cc1

RP-LC retention time: 735 s
SMILES: CCOc1ccc(NC(=O)N2CCC(n3c(-c4ccoc4)nc4cccnc43)C2)cc1 (stereo unspecified)

RP-LC retention time: 765 s
SMILES: CC1=C(c2ccc(Cl)cc2)S(=O)(=O)N=C1N1CCCN(C(=O)c2ccccn2)CC1

RP-LC retention time: 707 s
SMILES: COc1ccc(NC(=O)C2(C)Oc3cccnc3NC2=O)c(OC)c1 (stereo unspecified)

RP-LC retention time: 646 s
SMILES: CCc1nnc([C@@H]2CC(F)(F)CN2C(=O)Cn2ccc(C)n2)o1

RP-LC retention time: 613 s
SMILES: CC(C)Cn1c(=O)c(C(=O)NCc2cccnc2)nc2cccnc21

RP-LC retention time: 1000 s
SMILES: COc1ccc(-n2c(=O)c3sccc3n(Cc3nc(-c4ccccc4C)no3)c2=O)cc1

RP-LC retention time: 970 s
SMILES: CCCCn1nc2ccc(S(=O)(=O)N3CCC(C)CC3)cn2c1=O

RP-LC retention time: 597 s
SMILES: COC1CCC12CCN(Cc1ccc(C#N)cc1)CC2 (stereo unspecified)

RP-LC retention time: 756 s
SMILES: Cc1ccc(NC(=O)Cn2c(C)nc3onc(C)c3c2=O)cc1C

RP-LC retention time: 832 s
SMILES: CCc1ccc(C2=NN(CCC(=O)NC(C)c3ccc4c(c3)OCCO4)C(=O)CC2)cc1 (stereo unspecified)

RP-LC retention time: 962 s
SMILES: O=C(NCCC1=CCCCC1)c1nc(-c2ccnc(N3CCOCC3)c2)no1
